From the supplement of paper PMC5412046
Counter-ions that a name gives are not always drawn.

Columns and labels:
SB.msgc-1 [1] = test: area under the dose-response curve of % viability (trapezoidal, 11 doses) (% viability x log10 concentration); higher = less cytotoxic; details: SB.msgc-1 (sporadic gastric cancer)
Procedure, shortened: (§1)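 Patient-derived gastric cancer cells, hereditary or sporadic, were plated at 500 cells in 5 μL medium per well of a 1536-well plate and given 23 nL of compound in DMSO by pintool across 11 threefold dilutions. The top concentration was recorded for each compound. After 48 h, CellTiter-Glo was added for 30 min at room temperature and luminescence was read on a ViewLux. Values are viability normalised to DMSO, taken either at the highest concentration or as trapezoidal area under the curve.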

SB.mhdgc-1 [2] = test: as above; details: SB.mhdgc-1 (hereditary c.1380delA CDH1 gastric cancer)
Procedure, shortened: as §1

SB.msgc-1 [3] = test: viability at highest tested concentration (MAXR) relative to DMSO; higher = less cytotoxic; details: SB.msgc-1 (sporadic gastric cancer)
Procedure, shortened: as §1

SB.mhdgc-1 [4] = test: as above; details: SB.mhdgc-1 (hereditary c.1380delA CDH1 gastric cancer)
Procedure, shortened: as §1

| Compound | area under the dose-response curve (SB.msgc-1 [1]) | area under the dose-response curve (SB.mhdgc-1 [2]) | viability (SB.msgc-1 [3]) [%] | viability (SB.mhdgc-1 [4]) [%] |
| --- | --- | --- | --- | --- |
| C[C@](N)(Cc1ccc(O)c(O)c1)C(=O)O [Methyldopa] (top concentration 46.0829 µM) | 519 | 469 | 105 | 63.7 |
| CN(C)c1ccc2nc3ccc(N(C)C)cc3[s+]c2c1 [Methylene blue] (top concentration 46.0829 µM) | 402 | 384 | 9.08 | 4.3 |
| C[C@H]1C[C@H]2[C@@H]3CC[C@](O)(C(=O)CO)[C@@]3(C)C[C@H](O)[C@@H]2[C@@]\4(C)/C=C\C(=O)\C=C14 [Methylprednisolone] (top concentration 46.0829 µM) | 495 | 462 | 95 | 105 |
| CN(C)C1=CC=C(C=C1)C(C2=CC=C(C=C2)N(C)C)=C/3\C=C/C(/C=C3)=[N+](C)C [Methylrosaniline chloride] (top concentration 46.0829 µM) | 379 | 356 | -1.17 | 0.7 |
| C[C@]12CCC(=O)C=C1CC[C@@H]1[C@@H]2CC[C@@]2(C)[C@H]1CC[C@]2(C)O [Methyltestosterone] (top concentration 92.1659 µM) | 515 | 523 | 60.4 | 73.4 |
| Cc1ccccc1N1C(=O)c2cc([S+](N)(=O)[O-])c(Cl)cc2NC1C (centres undefined) [Metolazone] (top concentration 46.0829 µM) | 529 | 571 | 101 | 97 |
| Cc1ncc([N+](=O)[O-])n1CCO [Metronidazole] (top concentration 46.0829 µM) | 522 | 483 | 115 | 98.6 |
| CN1CCN2c3ccccc3Cc3ccccc3C2C1 (centres undefined) [Mianserin hydrochloride] (top concentration 46.0829 µM) | 536 | 508 | 94 | 80.8 |
| Clc1ccc(COC(Cn2ccnc2)c2ccc(Cl)cc2Cl)c(Cl)c1 (centres undefined) [Miconazole nitrate] (top concentration 46.0829 µM) | 494 | 495 | 46.2 | 49.5 |
| CO[C@@H]1[C@H](N(C)C(=O)c2ccccc2)C[C@H]2O[C@]1(C)n1c3ccccc3c3c4c(c5c6ccccc6n2c5c31)C(=O)NC4 [Midostaurin] (top concentration 46.0829 µM) | 490 | 389 | 56.2 | 33.4 |
| CC#C[C@]1(O)CC[C@H]2[C@@H]/3CCC/4=C/C(=O)CCC4=C3[C@H](C[C@]12C)C5=CC=C(C=C5)N(C)C [Mifepristone] (top concentration 46.0829 µM) | 364 | 306 | 51.8 | 26 |
| OCCN1C[C@H](O)[C@@H](O)[C@H](O)[C@H]1CO [Miglitol] (top concentration 46.0829 µM) | 560 | 529 | 123 | 106 |
| CNC(=O)c1nn(C)c2c1C(C)(C)Cc1cnc(Nc3ccc(N4CCN(C)CC4)cc3)nc1-2 [Milciclib] (top concentration 46.0829 µM) | 445 | 454 | 59.5 | 61.8 |
| C\C1=C(\C=C(\C#N)C(=O)N1)C2=CC=NC=C2 [Milrinone] (top concentration 46.0829 µM) | 475 | 544 | 44.2 | 11.8 |
| CN(C)c1ccc(O)c2c1C[C@H]1C[C@H]3[C@H](N(C)C)C(O)=C(C(N)=O)C(=O)[C@@]3(O)C(O)=C1C2=O [Minocycline] (top concentration 46.0829 µM) | 431 | 450 | 26.2 | 27.4 |
| Nc1cc(N2CCCCC2)nc(N)[n+]1[O-] [Minoxidil] (top concentration 46.0829 µM) | 579 | 507 | 94.7 | 71.2 |
| CN1CCN2c3ncccc3Cc3ccccc3C2C1 (centres undefined) [Mirtazapine] (top concentration 46.0829 µM) | 545 | 548 | 99.7 | 150 |
| O=C([O-])[C@H](CC(=O)N1C[C@H]2CCCC[C@H]2C1)Cc1ccccc1 [Mitiglinide calcium hydrate] (top concentration 46.0829 µM) | 549 | 547 | 109 | 114 |
| CO[C@@]12[C@H](COC(N)=O)C/3=C(N1C[C@@H]4N[C@H]24)/C(=O)/C(=C(N)\C3=O)C [Mitomycin] (top concentration 46.0829 µM) | 362 | 199 | 42.1 | 12.4 |
| Clc1ccc(C(c2ccccc2Cl)C(Cl)Cl)cc1 (centres undefined) [Mitotane] (top concentration 46.0829 µM) | 497 | 478 | 59.8 | 51 |
| O=C1c2c(O)ccc(O)c2C(=O)c2c(NCCNCCO)ccc(NCCNCCO)c21 [Mitoxantrone] (top concentration 46.0829 µM) | 402 | 263 | 20.4 | 2.34 |
| CN(c1nccc(=O)[nH]1)C1CCN(c2nc3ccccc3n2Cc2ccc(F)cc2)CC1 [Mizolastine] (top concentration 46.0829 µM) | 467 | 519 | 31.2 | 64.6 |
| NC(=O)c1ncn([C@@H]2O[C@H](CO)[C@@H](O)[C@H]2O)c1O [Mizoribine] (top concentration 46.0829 µM) | 559 | 599 | 114 | 110 |

| Compound | area under the dose-response curve (SB.msgc-1 [1]) | area under the dose-response curve (SB.mhdgc-1 [2]) | viability (SB.msgc-1 [3]) [%] | viability (SB.mhdgc-1 [4]) [%] |
| --- | --- | --- | --- | --- |
| Nc1ccccc1NC(=O)c1ccc(CNc2nccc(-c3cccnc3)n2)cc1 [Mocetinostat] (top concentration 46.0829 µM) | 355 | 447 | 16.8 | 69 |
| C[C@@H]1C[C@H]2[C@@H]3CC\C4=C\C(=O)\C=C/[C@]4(C)[C@@]3(Cl)[C@@H](O)C[C@]2(C)[C@@]1(OC(=O)C5=CC=CO5)C(=O)CCl [Mometasone furoate] (top concentration 46.0829 µM) | 501 | 398 | 20.5 | 4.2 |
| CCOC(=O)C/1=C(C)/NC(=S)NC1C2=CC=CC(=C2)O (centres undefined) [Monastrol] (top concentration 46.0829 µM) | 347 | 398 | 48.5 | 86.2 |
| O=C(CCCN1CCN(c2ccc(F)cc2)CC1)NC1c2ccccc2CSc2ccccc21 (centres undefined) [Monatepil] (top concentration 46.0829 µM) | 486 | 597 | 49.1 | 68.5 |
| CC[C@@]1([C@@H]2O[C@@H]([C@H]3O[C@@](O)(CO)[C@H](C)C[C@@H]3C)C[C@@H]2C)CC[C@H]([C@]2(C)CC[C@]3(C[C@H](O)[C@@H](C)[C@@H]([C@@H](C)[C@@H](OC)[C@H](C)C(=O)[O-])O3)O2)O1 [Monensin sodium salt] (top concentration 23.0415 µM) | 346 | 304 | 20.7 | 26.8 |
| Oc1ccc(OCc2ccccc2)cc1 [Monobenzone] (top concentration 46.0829 µM) | 568 | 588 | 96.2 | 83.9 |
| OC1=CC(=C(C=C1)\C2=C(O)\C(=O)C3=C(O2)C=C(O)C=C3O)O [Morin hydrate] (top concentration 46.0829 µM) | 516 | 530 | 105 | 132 |
| N=C(N)NC(=N)N1CCOCC1 [Moroxydine] (top concentration 46.0829 µM) | 479 | 506 | 44.6 | 52.5 |
| CCOc1cc(N)c(Cl)cc1C(=O)NCC1CN(Cc2ccc(F)cc2)CCO1 (centres undefined) [Mosapride citrate] (top concentration 46.0829 µM) | 514 | 572 | 89.2 | 147 |
| CC1(C)CNc2cc(NC(=O)c3cccnc3NCc3ccncc3)ccc21 [Motesanib] (top concentration 46.0829 µM) | 463 | 394 | 68.8 | 49.8 |
| COc1c(N2C[C@@H]3CCCN[C@@H]3C2)c(F)cc2c(=O)c(C(=O)O)cn(C3CC3)c12.Cl.O [Moxifloxacin hydrochloride] (top concentration 46.0829 µM) | 507 | 560 | 67.6 | 92.9 |
| COC1=NC(=NC(=C1N\C2=N\CCN2)Cl)C [Moxonidine hydrochloride hydrate] (top concentration 46.0829 µM) | 489 | 430 | 122 | 77.7 |
| FC(F)(F)c1ccc(/C=C/c2nc(COc3ccc(CCCCn4ccnn4)cc3)co2)cc1 [Mubritinib] (top concentration 46.0829 µM) | 241 | 368 | 28.4 | 48.8 |
| COc1c(C)c2c(c(O)c1C/C=C(\C)CCC(=O)OCCN1CCOCC1)C(=O)OC2 [Mycophenolate mofetil] (top concentration 46.0829 µM) | 510 | 571 | 55.1 | 88.3 |
| COc1c(C)c2c(c(O)c1C/C=C(\C)CCC(=O)O)C(=O)OC2 [Mycophenolic acid] (top concentration 46.0829 µM) | 519 | 502 | 73.8 | 66 |
| OC1=CC2=C(C(=C1)O)C(=O)\C(=C(/O2)C3=CC(=C(O)C(=C3)O)O)O [Myricetin] (top concentration 46.0829 µM) | 484 | 510 | 100 | 108 |
| COc1ccc(Nc2cc(-c3cnc(N)nc3)nc(N3CCOCC3)n2)cn1 [NIBR-17] (top concentration 46.0829 µM) | 421 | 378 | 37.7 | 37 |
| c1ccc2c(CN3CCNCC3)cccc2c1 [NMP] (top concentration 46.0829 µM) | 491 | 520 | 89.5 | 7.38 |
| COc1cccc([C@@H](C)NCCCc2ccccc2Cl)c1 [NPS R568] (top concentration 46.0829 µM) | 320 | 525 | 22 | 74.4 |
| Nc1nc(N)c(N=O)c(OCC2CCCCC2)n1 [NU-6027] (top concentration 46.0829 µM) | 505 | 432 | 69.3 | 53.7 |
| N[S+](=O)([O-])c1ccc(Nc2nc(OCC3CCCCC3)c3[nH]cnc3n2)cc1 [NU-6102] (top concentration 46.0829 µM) | 537 | 496 | 69.2 | 42.7 |
| O=C1\C=C(OC2=C(C=CC=C12)C3=CC=CC4=C3SC5=C4C=CC=C5)\N6CCOCC6 [NU-7441] (top concentration 46.0829 µM) | 443 | 484 | 9.96 | 1.01 |
| CNCC(O)C(O)C(O)C(O)CO.O=C(O)c1ccc(-c2cc3cccnc3c(-c3ccc4nonc4c3)n2)cc1 [NVP-ABE171] (top concentration 46.0829 µM) | 511 | 567 | 20.2 | 7.16 |
